Test results: PubChem BioAssay (NCI)
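All cell lines were grown in 96-well plates and treated with compound for 48 hours. GI50 marks 50% less growth. Definition used: TGI = concentration required for complete inhibition of growth.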

How the values were obtained:
Test in all cases: NCI anticancer screen, dose series, 48 h
DU-145 prostate = test system: DU-145 prostate
HCC-2998 colon = test system: HCC-2998 colon
HCT-15 colon = test system: HCT-15 colon
HL-60(TB) leukemia = test system: HL-60(TB) leukemia
KM12 colon = test system: KM12 colon
MALME-3M melanoma = test system: MALME-3M melanoma
MCF7 breast = test system: MCF7 breast
NCI-H23 lung = test system: NCI-H23 lung
NCI/ADR-RES ovarian = test system: NCI/ADR-RES ovarian
RXF 393 renal = test system: RXF 393 renal
SK-MEL-5 melanoma = test system: SK-MEL-5 melanoma
SW-620 colon = test system: SW-620 colon
TK-10 renal = test system: TK-10 renal
UACC-257 melanoma = test system: UACC-257 melanoma
UACC-62 melanoma = test system: UACC-62 melanoma

SMILES	TGI (DU-145 prostate) [µM]	TGI (HCC-2998 colon) [µM]	TGI (HCT-15 colon) [µM]	TGI (HL-60(TB) leukemia) [µM]	TGI (KM12 colon) [µM]	TGI (MALME-3M melanoma) [µM]	TGI (MCF7 breast) [µM]	TGI (NCI-H23 lung) [µM]	TGI (NCI/ADR-RES ovarian) [µM]	TGI (RXF 393 renal) [µM]	TGI (SK-MEL-5 melanoma) [µM]	TGI (SW-620 colon) [µM]	TGI (TK-10 renal) [µM]	TGI (UACC-257 melanoma) [µM]	TGI (UACC-62 melanoma) [µM]	GI50 (KM12 colon) [µM]	GI50 (MALME-3M melanoma) [µM]	GI50 (NCI/ADR-RES ovarian) [µM]	GI50 (RXF 393 renal) [µM]
CC1OC(OC2C[C@](O)(C(=O)CBr)Cc3c(O)c4c(c(O)c32)C(=O)c2ccccc2C4=O)C(F)C(O)C1O (stereo partly drawn)	63.2	> 100	21.6	3.22	> 84.1	16.5	> 100	36.2	> 67.7	35.6	24.4	> 45.8	> 87.4	39.6	34.5	–	–	–	–
CSS(C)(=O)=O	45.9	71.2	58.8	58.7	87.1	48.4	> 100	50.5	> 100	59.6	> 100	> 100	46	45.8	42.3	–	–	–	–
COc1ccc(-c2c3c(nc4[nH]c(=S)[nH]c(=S)c24)CCCC3)cc1OC	> 100	–	> 100	> 100	> 100	> 100	> 100	> 100	66.1	57.9	32.6	> 100	> 100	> 100	37.5	–	–	–	–
CC(=O)OCc1nnn2c1CCC2	–	> 100	> 100	> 100	> 100	> 100	–	–	–	> 100	> 100	> 100	> 100	> 100	> 100	–	–	–	–
COc1ccc(OCC(C)(C)O)cc1	–	> 100	> 100	> 100	> 100	> 100	> 84.1	> 100	> 100	> 100	> 100	> 100	–	> 100	> 100	–	–	–	–
CCCCCCC(=O)c1ccc2ccccc2c1O	92.6	> 100	> 100	> 100	> 100	–	> 100	> 100	> 100	74.4	> 100	> 100	> 100	> 100	> 100	–	–	–	–
COc1c2occc2cc2ccc(=O)oc12	> 100	> 100	> 100	> 100	> 100	> 100	> 100	> 100	> 100	> 100	> 100	> 100	> 100	> 100	> 100	> 100	> 100	> 100	> 100
N[C@@H](Cc1ccc2oc3cc(=O)c4ccccc4c-3nc2c1)C(=O)O	34.7	–	> 100	> 100	> 100	11.2	6.79	51.3	> 100	> 100	24.1	> 100	> 100	42.3	57.9	–	–	–	–
C=CCOC1OC(CS(=O)(=O)O)C(OC(C)=O)C(OC(C)=O)C1OC(C)=O (stereo not drawn)	> 100	> 100	> 100	> 100	> 100	> 100	> 100	> 100	> 100	> 100	> 100	> 100	> 100	> 100	> 100	–	–	–	–
CCOC(=O)/C=C/c1c[nH]c(=O)[nH]c1=O	–	> 75	> 75	> 75	> 75	> 75	> 75	> 75	> 75	> 75	> 75	> 75	–	> 75	> 75	–	–	–	–
c1ccc(N2N=C3N(c4ccccc4)C2N3c2ccccc2)cc1	> 100	77.5	> 100	> 100	> 100	38.2	> 100	> 100	> 100	> 100	63.4	> 100	> 100	55	80.2	–	–	–	–
